Measured values taken from patent publication US7175872B2, “Pyridinium-Betain compounds for use as taste modulators” (Nestec S.A., priority 2002, dated 2007).
Structures can show the parent of a compound that is named as a salt.

Tests used:
Assay type in all cases: in vivo
umami taste of MSG = assay: Umami taste detection threshold of MSG/Pyridinium-Betaine mixtures (triangle test, sensory panel)
Protocol: (§1) • Sensory panel training: […] Sensory analyses were performed in a sensory panel room at 22-25° C. on three different sessions. • Taste thresholds: The taste thresholds of the tastants or mixtures containing basic tastants plus Pyridinium-Betains were determined in a triangle test using Evian® mineral water as the solvent at a defined pH ([…] and H.-D. Belitz, Z. Lebensm. Unters. Forsch. 1975, 159, 65-72). The samples (3 mL) were presented in order of increasing concentrations (serial 1:1 dilutions). The threshold values evaluated in two different sessions were averaged. […] The taste intensities of aqueous (Evian®) solutions containing a basic tastant, such as glucose and MSG, for example, in constant concentrations and the compounds of the general formula (A), for example […], in various concentrations were compared with those of a solution containing the basic tastant only. To achieve this, triangle tests were performed with two glass vials containing the basic tastant in constant concentrations, and one glass vial containing a stepwise 1:1-diluted mixture of basic […]. […] The relative taste strength (taste enhancing factor) of a mixture containing the basic […] was related to the basic tastants glucose, MSG, or other tastants, respectively, as standard substances, and was determined as the ratio of the concentrations c of iso-intensely tasting solutions of the basic tastant, such as glucose (glc), and the mixture containing tastant plus Pyridinium-Betain, […])=[…] […] This taste enhancing effect is illustrated in examples. Pyridinium-Betaines not only enhance the sweet taste perception, but also the umami taste.

sweet taste of sucrose = assay: Sweet taste detection threshold of sucrose/Pyridinium-Betaine mixtures (triangle test, sensory panel); design: key to Threshold decrease: fold decrease of sweet threshold vs pure sucrose
Protocol: (§2) • Sensory panel training: […] Sensory analyses were performed in a sensory panel room at 22-25° C. on three different sessions. • Taste thresholds: The taste thresholds of the tastants or mixtures containing basic tastants plus Pyridinium-Betains were determined in a triangle test using Evian® mineral water as the solvent at a defined pH ([…] and H.-D. Belitz, Z. Lebensm. Unters. Forsch. 1975, 159, 65-72). The samples (3 mL) were presented in order of increasing concentrations (serial 1:1 dilutions). The threshold values evaluated in two different sessions were averaged. […] The taste intensities of aqueous (Evian®) solutions containing a basic tastant, such as glucose and MSG, for example, in constant concentrations and the compounds of the general formula (A), for example […], in various concentrations were compared with those of a solution containing the basic tastant only. To achieve this, triangle tests were performed with two glass vials containing the basic tastant in constant concentrations, and one glass vial containing a stepwise 1:1-diluted mixture of basic […]. […] The relative taste strength (taste enhancing factor) of a mixture containing the basic […] was related to the basic tastants glucose, MSG, or other tastants, respectively, as standard substances, and was determined as the ratio of the concentrations c of iso-intensely tasting solutions of the basic tastant, such as glucose (glc), and the mixture containing tastant plus Pyridinium-Betain, […])=[…] This taste enhancing effect is illustrated in examples. The sweet taste thresholds of equimolar mixtures of sweet tasting compounds and various Pyridinium-Betaines were determined by a triangle test using EVIAN® mineral water as the solvent. The sensorial evaluations were performed at different pH values. The equimolar mixture of […] and sucrose at pH 7.0 was evaluated with a 4-fold lower sweet threshold concentration than pure sucrose (Table 1).

sweet taste of glucose = assay: Sweet taste detection threshold of glucose/Pyridinium-Betaine mixtures (triangle test, sensory panel); settings: equimolar mixture with glucose, pH 7.0; for Threshold decrease: vs glucose in water 50.0 mmol/L
Protocol: as §2, with “1). […] is able to reduce the sweet threshold of glucose 16-fold at pH 7.0 and pH 9.0, whereas at pH 5.0 a gain the sweet taste perception […] (Table 2). […] Using the dipeptide derivative (S)-[…] as a taste-enhancer leads to a 16-fold threshold reduction compared to glucose.” for “1).”

salty taste of NaCl = assay: Salt taste detection threshold of NaCl/Pyridinium-Betaine mixtures (triangle test, sensory panel)
Protocol: • Sensory panel training: […] Sensory analyses were performed in a sensory panel room at 22-25° C. on three different sessions. • Taste thresholds: The taste thresholds of the tastants or mixtures containing basic tastants plus Pyridinium-Betains were determined in a triangle test using Evian® mineral water as the solvent at a defined pH ([…] and H.-D. Belitz, Z. Lebensm. Unters. Forsch. 1975, 159, 65-72). The samples (3 mL) were presented in order of increasing concentrations (serial 1:1 dilutions). The threshold values evaluated in two different sessions were averaged. […] The taste intensities of aqueous (Evian®) solutions containing a basic tastant, such as glucose and MSG, for example, in constant concentrations and the compounds of the general formula (A), for example […], in various concentrations were compared with those of a solution containing the basic tastant only. […] The relative taste strength (taste enhancing factor) of a mixture containing the basic […] was related to the basic tastants glucose, MSG, or other tastants, respectively, as standard substances, and was determined as the ratio of the concentrations c of iso-intensely tasting solutions of the basic tastant, such as glucose (glc), and the mixture containing tastant plus Pyridinium-Betain, […])=[…] […] This taste enhancing effect is illustrated in examples.

bitter taste of caffeine = assay: Bitter intensity ranking with Glypyridaine: caffeine; settings: no Glypyridaine, scale 0-5
Text: Instead of working with low concentrated solutions at the bitter threshold, another series of experiments use carried out using more concentrated solutions of various bitter compounds to evaluate the bitter-blocking properties of Pyridinium-Betaines based on non-chiral amino acids. […] The bitter-reducing effect was most pronounced with L-Phenylalanine, the dipeptide H-Gly-Leu-OH, and caffeine.

sweet taste of L-alanine = assay: Sweet taste detection threshold of L-alanine/Pyridinium-Betaine mixtures (triangle test, sensory panel); settings: L-alanine alone
Protocol: as §1, with “Besides the two carbohydrates,” for “Pyridinium-Betaines not only enhance”, “sweet amino acid L-alanine was also tested with […]. Again, the best impact on sweet” for “sweet”, “perception was found for” for “perception, but also”, “mixture at pH 9.0, resulting in an 8-fold lower threshold.” for “umami taste.”

[1] = umami, MSG and mixtures with Alapyridaine enantiomers (Table 9), pH not stated
[2] = sweet, vs sucrose alone (Table 10)
[3] = equimolar mixture with MSG, pH 7.0
[4] = equimolar mixture with MSG, pH 7.0, vs MSG in water 1.5 mmol/L
[5] = equimolar mixture with sucrose, pH 7.0
[6] = equimolar mixture with sucrose, pH 9.0
[7] = equimolar mixture with sucrose, pH 9.0, vs sucrose in water 12.5 mmol/L

C[C@@H](C(=O)[O-])[n+]1cc(O)ccc1CO [(+)-(S)-Alapyridaine, (S)-N-(1-carboxyethyl)-3-hydroxy-6-hydroxymethyl-pyridinium inner salt]
Detection threshold (umami taste of MSG; [1]): 0.2 mmol/kg water | Threshold decrease (sweet taste of sucrose; [2]): 8

O=C(C[n+]1cc(O)ccc1CO)N[C@@H](Cc1ccccc1)C(=O)[O-] [(S)-GlyPhepyridaine, (S)-N-[N(1-carboxy-2-phenyl-ethyl)-carboxamido-methyl]-3-hydroxy-6-hydroxymethyl-pyridinium inner salt]
Taste quality (umami taste of MSG; [3]): umami | Umami detection threshold (umami taste of MSG; [3]): 0.2 mmol/kg water | Threshold decrease (umami taste of MSG; [4]): 8.0 | Sweet detection threshold (sweet taste of glucose): 3.0 mmol/kg water | Taste quality (sweet taste of glucose): sweet | Threshold decrease (sweet taste of glucose): 16

C[C@H](C(=O)[O-])[n+]1cc(O)ccc1CO [(−)-(R)-Alapyridaine, (R)-N-(1-carboxyethyl)-3-hydroxy-6-hydroxymethyl-pyridinium inner salt]
Threshold decrease (salty taste of NaCl; salty, vs NaCl alone (Table 11)): did not alter the taste of the aqueous salt solution | Threshold decrease (umami taste of MSG; umami, vs MSG alone (Table 9)): does not have any taste enhancing impact | Threshold decrease (sweet taste of sucrose; [2]): does not alter the sweet taste perception of sucrose

Cn1c(=O)c2c(ncn2C)n(C)c1=O [Caffeine, reference compound]
Bitter taste intensity (bitter taste of caffeine; Caffeine 4 mmol/L water): 3 | Bitter taste intensity (bitter taste of caffeine; Caffeine 8 mmol/L water): 4.5 | Bitter taste intensity (bitter taste of caffeine; Caffeine 16 mmol/L water): 5

O=C(O)CCC(C(=O)[O-])[n+]1cc(O)ccc1CO (stereo not shown) [Glupyridaine, N-(1,3-dicarboxypropyl)-3-hydroxy-6-hydroxymethyl-pyridinium inner salt]
Taste quality (umami taste of MSG; [3]): umami | Umami detection threshold (umami taste of MSG; [3]): 0.4 mmol/kg water | Threshold decrease (umami taste of MSG; [4]): 4.0 | Sweet detection threshold (sweet taste of sucrose; [5]): 12.0 mmol/kg water | Taste quality (sweet taste of sucrose; [5]): sweet | Sweet detection threshold (sweet taste of sucrose; [6]): 6.0 mmol/kg water | Taste quality (sweet taste of sucrose; [6]): sweet | Threshold decrease (sweet taste of sucrose; [7]): 2

C[C@H](N)C(=O)O [L-alanine, reference compound]
threshold of L-alanine in water (sweet taste of L-alanine): ^aThe threshold of L-alanine in water is 12.5 mmol/L.

N[C@@H](CCC(=O)O)C(=O)[O-].[Na+] [MSG, monosodium glutamate, reference compound]
threshold of MSG in water (umami taste of MSG; MSG alone): ^aThe threshold of MSG in water is 1.5 mmol/L. | Taste quality (umami taste of MSG; MSG and mixtures with Alapyridaine enantiomers (Table 9), pH not stated): umami | Detection threshold (umami taste of MSG; [1]): 1.5 mmol/kg water

O=C([O-])[C@H](Cc1ccccc1)[n+]1cc(O)ccc1CO [Phepyridaine]
Salt detection threshold (salty taste of NaCl; mixture with NaCl, pH 7.0): 2.0 mmol/kg water | Taste quality (salty taste of NaCl; mixture with NaCl, pH 7.0): salty | Threshold decrease (salty taste of NaCl; mixture with NaCl, pH 7.0, vs NaCl in water 10.0 mmol/L): 5.0 | Taste quality (umami taste of MSG; [3]): umami | Umami detection threshold (umami taste of MSG; [3]): 0.4 mmol/kg water | Threshold decrease (umami taste of MSG; [4]): 4.0 | Sweet detection threshold (sweet taste of glucose): 3.0 mmol/kg water | Taste quality (sweet taste of glucose): sweet | Threshold decrease (sweet taste of glucose): 16.0 | Sweet detection threshold (sweet taste of sucrose; [5]): 3.0 mmol/kg water | Taste quality (sweet taste of sucrose; [5]): sweet | Threshold decrease (sweet taste of sucrose; equimolar mixture with sucrose, pH 7.0, vs sucrose in water 12.5 mmol/L): 4.0 | Sweet detection threshold (sweet taste of sucrose; [6]): 1.5 mmol/kg water | Taste quality (sweet taste of sucrose; [6]): sweet | Threshold decrease (sweet taste of sucrose; [7]): 8.0 | concentration above which a rubber-like off-taste is imparted (sweet taste of sucrose; mixture with sucrose): above 3 mmol/kg | concentration above which the sweetness is associated with a rubber-like taste (sweet taste of sucrose; mixture with sucrose): ^bThe sweetness is associated with a rubber-like taste in concentrations higher than 3 mmol/L.

OC[C@H]1O[C@@](CO)(O[C@H]2O[C@H](CO)[C@@H](O)[C@H](O)[C@H]2O)[C@@H](O)[C@@H]1O [Sucrose, sucrose, reference compound]
threshold of sucrose in water (sweet taste of sucrose; sucrose alone): ^aThe threshold of sucrose in water is 12.5 mmol/L. | Taste quality (sweet taste of sucrose; sucrose and mixtures with Alapyridaine enantiomers (Table 10), pH not stated): sweet | Detection threshold (sweet taste of sucrose; sweet, sucrose and mixtures with Alapyridaine enantiomers (Table 10), pH not stated): 12.5 mmol/kg water
